Measured values taken from patent publication US20250041298A1, “CDK4 INHIBITOR FOR THE TREATMENT OF CANCER” (Pfizer Inc., priority 2021, published 2025).
Several values for one entry are separate records, joined by “and”; a condition that tells them apart may be missing. Identical values can stand only once.

Legend:
Format in all cases: cell-based, human
[1] = test system: HR+, HER2- T47D breast cancer spheroids; assay: Multicellular tumor spheroid growth inhibition (SGI), T47D
Protocol: (§1) The purpose of this example was to evaluate the combination effect of PF-07220060 and endocrine therapy in multicellular tumor spheroid growth inhibition (SGI). To model the characteristics and cellular behavior of human tumors, the activity of PF-07220060 was evaluated in three dimensional MCTS models of HR+ breast cancer and AR+ prostate cancer following PF-07220060 treatment as a single agent and in combination with fulvestrant • 1) in HR+, HER2-T47D breast cancer spheroids. • 2) in HR+, HER2+BT474 breast cancer spheroids, • 3) in BT474 spheroids, and • 4) in AR+ prostate carcinoma cell line (LNCaP) prostate cancer spheroids. Spheroids were treated with increasing concentrations of 100, 300, or 1000 nM PF-07220060 and compared to palbociclib at the clinically relevant concentration of 30 nM. Single agent PF-07220060 inhibited spheroid growth in a dose-dependent manner, with highest efficacy (86% SGI over the duration of treatment with 1000 nM) shown in the T47D BC spheroid model (Table 1). Combining 100 nM PF-07220060 with 1 nM fulvestrant in T47D cells increased SGI to 96% compared to either single agent alone (57 to 67% SGI with 100 nM PF-07220060 or 79% SGI with fulvestrant) (Table 1). BT474 spheroids were relatively less sensitive to PF-07220060 resulting in 52% SGI at 1000 nM.

[2] = test system: HR+, HER2+ BT474 breast cancer spheroids; assay: Multicellular tumor spheroid growth inhibition (SGI), BT474
Protocol: as §1

[3] = test system: AR+ prostate carcinoma cell line (LNCaP) prostate cancer spheroids; assay: Multicellular tumor spheroid growth inhibition (SGI), LNCaP
Protocol: The purpose of this example was to evaluate the combination effect of PF-07220060 and endocrine therapy in multicellular tumor spheroid growth inhibition (SGI). To model the characteristics and cellular behavior of human tumors, the activity of PF-07220060 was evaluated in three dimensional MCTS models of HR+ breast cancer and AR+ prostate cancer following PF-07220060 treatment as a single agent and in combination with fulvestrant • 1) in HR+, HER2-T47D breast cancer spheroids. • 2) in HR+, HER2+BT474 breast cancer spheroids, • 3) in BT474 spheroids, and • 4) in AR+ prostate carcinoma cell line (LNCaP) prostate cancer spheroids. Spheroids were treated with increasing concentrations of 100, 300, or 1000 nM PF-07220060 and compared to palbociclib at the clinically relevant concentration of 30 nM.

Row | SMILES | SGI ([1]; 1 nM single agent) [%] | SGI ([2]; 100 nM single agent) [%] | SGI ([1]; 30 nM single agent) | SGI ([3]; 30 nM single agent) [%] | SGI ([3]; 100 nM single agent) [%] | SGI ([2]; 30 nM single agent)
1 | C[C@]12CC[C@@H]3c4ccc(O)cc4C[C@@H](CCCCCCCCC[S+]([O-])CCCC(F)(F)C(F)(F)F)[C@H]3[C@@H]1CC[C@@H]2O (stereo partly drawn) [Fulvestrant, reference compound] | 79 | 10 | – | – | – | –
2 | CC(=O)c1c(C)c2cnc(Nc3ccc(N4CCNCC4)cn3)nc2n(C2CCCC2)c1=O [Palbociclib, reference compound] | – | – | 38% and 49% | 5 | 24 | 0% and 5% and 1%
